Source: patent publication US10072023B2, “Diarylethene compounds and uses thereof” (SWITCH MATERIALS, INC., priority 2011, dated 2018)

Experiments:
[1] = Absorbance at photostationary state (PSS) under simulated sunlight or 365 nm light; type: physicochemical; design: λ max: unit not given here; conditions: for Absorbance at PSS, 365 nm: 365 nm light source; for Absorbance at PSS, 365 nm / Absorbance at PSS, full / Absorbance at PSS, +UV / λ max: 2.0×10^−5 M in triglyme; for sensitivity index: ratio of PSS under 365 nm light to PSS under full spectrum light (without UV blocking film); for Absorbance at PSS, full: simulated sunlight (QSUN solar simulator), no UV blocking film; for Absorbance at PSS, +UV: simulated sunlight with UV blocking film (cutoff 370 nm); for λ max: wavelength of maximum absorbance in the visible range, ring-closed isoform
Procedure: Absorbance at a PSS for selected compounds was measured at 2.0×10^−5 M in triglyme in the absence (full) or presence (+UV) of a UV blocking film with a UV cutoff wavelength of 370 nm (10% transmission at 370 nm), using simulated sunlight (QSUN solar simulator) as a light source, or a 365 nm light source; these PSS are reported in Tables 1.5. […] “Switch” refers to the ability (yes or no) of the compound to be reversibly converted under photochromic and electrochromic conditions between a ring-open isomer and ring-closed isomer.
A sensitivity index (SI) is a ratio of the PSS under 365 nm light to the PSS under full spectrum light (without UV blocking film). SI is an indicator of the sensitivity of the compound to the composition of the incident light (a change in the ratio of UV and visible components)—photochemical ring-opening is induced by a portion of the visible light spectrum.
Photostationary State (PSS) UV/Vis spectra are obtained using an OceanOptics™ Spectrophotometer until absorption in the visible region of the spectrum stabilizes. A 2×10^−5M solution of compound in solvent is prepared, and photofaded using visible light until absorption in the visible region of the spectrum stabilizes. The sample is then irradiated with simulated sunlight (QSUN SS-150 Solar Simulator with xenon arc lamp) until the absorption spectrum stabilizes. To obtain PSS in the presence of a UV blocking film, a second sample is prepared and irradiated as described, with a UV blocking film inserted in the light path when irradiating.

[2] = Solubility in indicated solvent; type: physicochemical; conditions: % wt soluble in triglyme
From the text: A compound with greater solubility allows for a formulation or material with a greater concentration of coloured molecule to be incorporated into a composition. This may allow for increasing the contrast ratio for a compound with a lesser absorbance at PSS. Inclusion of a solubilizing group in a compound according to various embodiments of the invention may increase solubility. Examples of solubilizing groups may include alkoxy or siloxy groups.

SMILES	Absorbance at PSS, 365 nm [1]	sensitivity index [1]	Absorbance at PSS, full [1]	Absorbance at PSS, +UV [1]	λ max [1]	Solubility [2]
Cc1c(-c2ccccc2)sc(-c2ccccc2)c1C1=C(c2c(-c3ccccc3)sc(-c3ccccc3)c2C)C(F)(F)C(F)(F)C1(F)F [S017, 4,4′-(perfluorocyclopent-1-ene-1,2-diyl)bis(3-methyl-2,5-diphenylthiophene)]	0.049	5.44	0.009	0.0025	605	1 % wt
COc1ccc(-c2cc(C3=C(c4cc(-c5ccc(OC)cc5)sc4-c4ccc(OC)cc4)C(F)(F)C(F)(F)C3(F)F)c(-c3ccc(OC)cc3)s2)cc1 [S054, 3,3′-(perfluorocyclopent-1-ene-1,2-diyl)bis(2,5-bis(4-methoxyphenyl)thiophene)]	0.268	2.53	0.106	0.056	630	5-6 % wt
CC(C)(C)c1ccc(-c2sc(-c3ccccc3)cc2C2=C(c3cc(-c4ccccc4)sc3-c3ccc(C(C)(C)C)cc3)C(F)(F)C(F)(F)C2(F)F)cc1 [S057, 3,3′-(perfluorocyclopent-1-ene-1,2-diyl)bis(2-(4-tert-butylphenyl)-5-phenylthiophene)]	0.204	2.58	0.079	0.033	610	1.5 % wt
CC(C)(C)COc1ccc(-c2cc(C3=C(c4cc(-c5ccc(OCC(C)(C)C)cc5)sc4-c4ccc(OCC(C)(C)C)cc4)C(F)(F)C(F)(F)C3(F)F)c(-c3ccc(OCC(C)(C)C)cc3)s2)cc1 [S095, 3,3′-(perfluorocyclopent-1-ene-1,2-diyl)bis(2,5-bis(4-(neopentyloxy)phenyl)thiophene)]	0.279	1.74	0.16	0.086	625	–
CC(C)(C)c1ccc(-c2sc(C(C)(C)C)cc2C2=C(c3cc(C(C)(C)C)sc3-c3ccc(C(C)(C)C)s3)C(F)(F)C(F)(F)C2(F)F)s1 [S073, 3,3′-(perfluorocyclopent-1-ene-1,2-diyl)bis(5,5′-di-tert-butyl-2,2′-bithiophene)]	0.06	5.71	0.0105	0.006	550	–
Cc1ccc(-c2cc(C3=C(c4cc(-c5ccc(C)s5)sc4-c4ccc(C)s4)C(F)(F)C(F)(F)C3(F)F)c(-c3ccc(C)s3)s2)s1 [S007, 3′,3″″-(perfluorocyclopent-1-ene-1,2-diyl)bis(5,5″-dimethyl-2,2′:5′,2″-terthiophene)]	0.353	1.67	0.212	0.154	650	–
COc1ccc2c(C3=C(c4c(-c5ccc(OC)c(OC)c5)oc5cc(OC)ccc45)C(F)(F)C(F)(F)C3(F)F)c(-c3ccc(OC)c(OC)c3)oc2c1 [S155, 3,3′-(perfluorocyclopent-1-ene-1,2-diyl)bis(2-(3,4-dimethoxyphenyl)-6-methoxybenzofuran)]	0.329	4.06	0.081	0.045	516	–
Cc1csc(-c2cc(C3=C(c4cc(-c5cc(C)cs5)sc4-c4cc(C)cs4)C(F)(F)C(F)(F)C3(F)F)c(-c3cc(C)cs3)s2)c1 [S149, 3′,3″″-(perfluorocyclopent-1-ene-1,2-diyl)bis(4,4″-dimethyl-2,2′:5′,2″-terthiophene)]	0.339	1.41	0.241	0.169	647	–
Cc1ccc(-c2sc(-c3cccs3)cc2C2=C(c3cc(-c4cccs4)sc3-c3ccc(C)s3)C(F)(F)C(F)(F)C2(F)F)s1 [S027, 3′,3″″-(perfluorocyclopent-1-ene-1,2-diyl)bis(5-methyl-2,2′:5′,2″-terthiophene)]	0.281	1.80	0.156	0.116	645	–
CC(C)(C)c1ccc(-c2sc(-c3ccc(C(C)(C)O)cc3)cc2C2=C(c3cc(-c4ccc(C(C)(C)O)cc4)sc3-c3ccc(C(C)(C)C)cc3)C(F)(F)C(F)(F)C2(F)F)cc1 [S067, 2,2′-((4,4′-(perfluorocyclopent-1-ene-1,2-diyl)bis(5-(4-(tert-butyl)phenyl)thiophene-4,2-diyl))bis(4,1-phenylene))bis(propan-2-ol)]	0.182	2.68	0.068	0.03	615	–
COc1ccc2c(C3=C(c4c(-c5ccc(-c6ccc(C(C)(C)C)s6)s5)oc5cc(OC)ccc45)C(F)(F)C(F)(F)C3(F)F)c(-c3ccc(-c4ccc(C(C)(C)C)s4)s3)oc2c1 [S152, 3,3′-(perfluorocyclopent-1-ene-1,2-diyl)bis(2-(5′-(tert-butyl)-[2,2′-bithiophen]-5-yl)-6-methoxybenzofuran)]	0.263	3.81	0.069	0.06	522	–
COc1ccc2c(C3=C(c4c(-c5ccc(C(C)(C)C)cc5)oc5cc(OC)ccc45)C(F)(F)C(F)(F)C3(F)F)c(-c3ccc(C(C)(C)C)cc3)oc2c1 [S151, 3,3′-(perfluorocyclopent-1-ene-1,2-diyl)bis(2-(4-(tert-butyl)phenyl)-6-methoxybenzofuran)]	0.403	3.80	0.106	0.056	514	–
COCCOc1ccc(-c2sc(-c3ccc(C(C)(C)C)s3)cc2C2=C(c3cc(-c4ccc(C(C)(C)C)s4)sc3-c3ccc(OCCOC)cc3)C(F)(F)C(F)(F)C2(F)F)cc1 [S104, 4,4″-(perfluorocyclopent-1-ene-1,2-diyl)bis(5′-(tert-butyl)-5-(4-(2-methoxyethoxy)phenyl)-2,2′-bithiophene)]	0.383	1.28	0.299	0.203	645	–
CC(C)(C)c1ccc(-c2cc(C3=C(c4cc(-c5ccc(C(C)(C)C)s5)sc4-c4ccc(O)cc4)C(F)(F)C(F)(F)C3(F)F)c(-c3ccc(O)cc3)s2)s1 [S105, 4,4′-(4,4″-(perfluorocyclopent-1-ene-1,2-diyl)bis(5′-(tert-butyl)-[2,2′-bithiophene]-5,4-diyl))diphenol]	0.272	1.38	0.197	0.134	647	–
COc1ccc(-c2oc3cc(OC)ccc3c2C2=C(c3c(-c4ccc(OC)cc4)oc4cc(OC)ccc34)C(F)(F)C(F)(F)C2(F)F)cc1 [S140, 3,3′-(perfluorocyclopent-1-ene-1,2-diyl)bis(6-methoxy-2-(4-methoxyphenyl)benzofuran)]	0.276	4.25	0.065	0.032	516	–
COc1ccc(-c2sc(-c3ccc(/C=C/C=C/c4ccccc4)cc3)cc2C2=C(c3cc(-c4ccc(/C=C/C=C/c5ccccc5)cc4)sc3-c3ccc(OC)cc3)C(F)(F)C(F)(F)C2(F)F)cc1 [S089, 3,3′-(perfluorocyclopent-1-ene-1,2-diyl)bis(2-(4-methoxyphenyl)-5-(4-((1E,3E)-4-phenylbuta-1,3-dien-1-yl)phenyl)thiophene)]	0.564	4.12	0.137	0.126	656	–
CC(C)(C)c1ccc(-c2cc(C3=C(c4cc(-c5ccc(C(C)(C)C)s5)sc4-c4ccc(C(=O)O)s4)C(F)(F)C(F)(F)C3(F)F)c(-c3ccc(C(=O)O)s3)s2)s1 [S119]	0.405	–	0.343	0.295	–	–
CCOc1ccc(-c2cc(C3=C(c4cc(-c5ccc(OCC)cc5)sc4-c4ccc(OCC)cc4)C(F)(F)C(F)(F)C3(F)F)c(-c3ccc(OCC)cc3)s2)cc1 [S091, 3,3′-(perfluorocyclopent-1-ene-1,2-diyl)bis(2,5-bis(4-ethoxyphenyl)thiophene)]	0.287	1.75	0.164	0.095	629	–
